# Measured values from US20240025884A1 (Dong-A ST Co., Ltd., priority 2022, published 2024).
# Biological target: GCN2 (Homo sapiens (Human), UniProt Q9P2K8)
# Assay: GCN2 Biochemical Assay (TR-FRET, GFP-eIF2S1 substrate phosphorylation)
# Details: read-out: IC50 (GCN2 Inhibitory Activity)
# Protocol: Experimental Example 1: GCN2 Biochemical Assay
# An inhibitory effect of the inventive compound on GCN2 was identified as follows.
# 384-well (Greiner #784075) (or 1536-well [Greiner #782075]) plates containing 60 nl (or 20 nl for 1536-well) of compound in 100% DMSO (10 concentrations serially diluted 3.16-fold) were prepared. Two copies of plates were used—one for the GCN2 assay and a second for an artifact plate. Working reagents were prepared as follows—reaction buffer: Tris pH 7.5 20 mM, MgCl2 5 mM, DTT 1 mM, Brij-35 0.005%, EGTA 0.5 mM in water; 2× enzyme solution: GCN2 (produced in-house) 1.6 nM in reaction buffer; 2× substrate solution: GFP-eIFS1 (Thermo Fisher Scientific, PV4809) 50 nM, ATP 0.2 mM, tRNA 0.4 mg/ml in reaction buffer; p-GFP-eIF2S1 (artifact) solution: p-GFP-eIFS1 (produced by incubation of 100 nM GFP-eIF2S1 in reaction buffer with 100 uM ATP and 1 nM PERK KD enzyme for 3 hr at room temperature) 2 nM in reaction buffer; 3× stop/antibody solution: p-GFP-EIF2S1 Th-Ab (Thermo Fisher Scientific, PV4816) 6 nM, AZ13933939 3 uM, BSA 3% in reaction buffer. Reagents were loaded onto a liquid dispenser (Certus FLEX, Trajan Scientific and Medical), and 3 ul (1 ul for 1536-well) of 2× enzyme solution, followed by 3 ul (1 ul for 1536-well) of 2× substrate solution was added to the plates. When small numbers of plates were processed, the enzyme solution was added first to all plates, then the valve used for the substrate solution was primed immediately prior to use. Plates were tapped or spun 1 min/1K/RT to ensure proper mixing, followed by incubation at room temperature for 70 mins, covered/stacked in the dark. For the artifact plate, 6 ul of p-GFP-eIF2S1 solution was added prior to adding the stop/antibody solution. 3 ul (1 ul for 1536-well) of 3× stop/antibody solution was added to the plates, followed by a spin-down for 1 min/1K/RT, and incubation for 2-3 hr, sealed or covered with lids in the dark at room temperature. Plates were read on a plate reader (PHERAstar FSX, BMF Labtech) at Ex 340/Em 490/Em 520 nm.
# GCN2, sequence (Q9P2K8 whole entry): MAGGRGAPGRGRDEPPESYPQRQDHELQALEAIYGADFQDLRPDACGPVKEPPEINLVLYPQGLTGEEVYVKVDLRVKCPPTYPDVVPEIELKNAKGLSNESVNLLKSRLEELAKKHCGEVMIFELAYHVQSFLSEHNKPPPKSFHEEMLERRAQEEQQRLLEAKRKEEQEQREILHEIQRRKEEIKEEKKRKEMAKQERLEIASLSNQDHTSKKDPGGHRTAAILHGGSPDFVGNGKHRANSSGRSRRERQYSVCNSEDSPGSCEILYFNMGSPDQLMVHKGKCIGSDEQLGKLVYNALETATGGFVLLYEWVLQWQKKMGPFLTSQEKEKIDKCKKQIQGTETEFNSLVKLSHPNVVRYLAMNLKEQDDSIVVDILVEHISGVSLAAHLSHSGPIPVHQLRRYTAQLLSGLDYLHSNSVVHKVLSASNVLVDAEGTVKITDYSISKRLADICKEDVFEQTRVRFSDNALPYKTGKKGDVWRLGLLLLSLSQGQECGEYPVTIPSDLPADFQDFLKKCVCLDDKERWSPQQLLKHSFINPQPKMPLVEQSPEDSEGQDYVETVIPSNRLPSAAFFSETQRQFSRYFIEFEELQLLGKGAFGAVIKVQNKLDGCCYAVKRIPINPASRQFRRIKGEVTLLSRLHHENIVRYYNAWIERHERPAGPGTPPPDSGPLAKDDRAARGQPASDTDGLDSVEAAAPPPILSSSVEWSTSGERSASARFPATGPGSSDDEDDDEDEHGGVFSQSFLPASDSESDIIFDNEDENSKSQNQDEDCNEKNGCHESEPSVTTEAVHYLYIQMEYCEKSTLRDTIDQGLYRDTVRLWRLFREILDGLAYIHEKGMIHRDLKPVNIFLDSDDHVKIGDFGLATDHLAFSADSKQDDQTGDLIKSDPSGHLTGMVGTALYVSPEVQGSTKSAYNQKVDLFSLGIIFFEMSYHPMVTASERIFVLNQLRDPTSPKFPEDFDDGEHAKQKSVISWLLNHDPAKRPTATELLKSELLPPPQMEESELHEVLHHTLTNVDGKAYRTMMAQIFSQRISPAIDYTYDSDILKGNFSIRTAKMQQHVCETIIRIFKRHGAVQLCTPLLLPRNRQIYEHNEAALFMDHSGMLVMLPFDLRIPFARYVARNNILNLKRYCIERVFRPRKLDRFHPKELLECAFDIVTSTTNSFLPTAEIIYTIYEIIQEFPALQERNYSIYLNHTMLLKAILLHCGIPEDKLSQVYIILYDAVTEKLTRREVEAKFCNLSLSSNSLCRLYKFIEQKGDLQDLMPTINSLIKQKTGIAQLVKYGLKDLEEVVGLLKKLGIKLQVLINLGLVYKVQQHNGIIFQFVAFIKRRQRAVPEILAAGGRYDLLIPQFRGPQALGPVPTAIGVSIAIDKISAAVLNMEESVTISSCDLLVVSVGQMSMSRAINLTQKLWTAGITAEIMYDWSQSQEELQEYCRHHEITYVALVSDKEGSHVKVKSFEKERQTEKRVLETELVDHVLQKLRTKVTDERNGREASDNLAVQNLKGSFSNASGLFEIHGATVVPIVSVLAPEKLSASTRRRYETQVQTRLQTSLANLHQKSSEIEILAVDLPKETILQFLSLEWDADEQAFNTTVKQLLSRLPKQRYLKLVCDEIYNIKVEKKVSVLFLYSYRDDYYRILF
row,SMILES,IC50 [nM]
1,"CCc1cnc(Nc2cc(C)n(C)n2)nc1-c1c[nH]c2c(NC(=O)CN3CC[C@H](Oc4ccnc(NC5CC5)n4)C3)cccc12 (stereo in doubt) [Example 11, (3-((2-(cyclopropylamino)pyrimidin-4-yl)oxy)pyrrolidin-1-yl)-N-(3-(2-((1,5-dimethyl-1H-pyrazol-3-yl)amino)-5-ethylpyrimidin-4-yl)-1H-indol-7-yl)acetamide]",< 10
2,"Cc1cnc(Nc2cc(C)n(C)n2)nc1-c1c[nH]c2c(NC(=O)CN3CCC(Oc4cc(C(F)(F)F)n(C)n4)C3)cccc12 (stereo in doubt) [Example 117, (R)-N-(3-(2-((1,5-dimethyl-1H-pyrazol-3-yl)amino)-5-methylpyrimidin-4-yl)-1H-indol-7-yl)-2-(3-((1-methyl-5-(trifluoromethyl)-1H-pyrazol-3-yl)oxy)pyrrolidin-1-yl)acetamide]",10 to 100
3,"Cc1cnc(Nc2cc(C)n(C)n2)nc1-c1c[nH]c2c(NC(=O)CN3CC[C@H](Oc4cnc(-c5ccccc5)nc4)C3)cccc12 (stereo in doubt) [Example 257, N-(3-(2-((1,5-dimethyl-1H-pyrazol-3-yl)amino)-5-methylpyrimidin-4-yl)-1H-indol-7-yl)-2-(3-((2-phenylpyrimidin-5-yl)oxy)pyrrolidin-1-yl)acetamide]",100 to 1000
4,"Cc1cnc(Nc2cc(C)n(C)n2)nc1-c1c[nH]c2c(NC(=O)CN3CC[C@H](Oc4ccnc(NC5CC5)n4)C3)c(F)ccc12 [Example 1, (S)-2-(3-((2-(cyclopropylamino)pyrimidin-4-yl)oxy)pyrrolidin-1-yl)-N-(3-(2-((1,5-dimethyl-1H-pyrazol-3-yl)amino)-5-methylpyrimidin-4-yl)-6-fluoro-1H-indol-7-yl)acetamide]",< 10
5,"Cc1cnc(Nc2cc(C)n(C)n2)nc1-c1c[nH]c2c(NC(=O)CN3CC[C@H](Oc4ccnc(NC5CC5)n4)C3)cc(N)cc12 [Example 2, (S)-N-(5-amino-3-(2-((1,5-dimethyl-1H-pyrazol-3-yl)amino)-5-methylpyrimidin-4-yl)-1H-indol-7-yl)-2-(3-((2-(cyclopropylamino)pyrimidin-4-yl)oxy)pyrrolidin-1-yl)acetamide]",10 to 100
6,"Cc1cnc(Nc2cc(C)n(C)n2)nc1-c1c[nH]c2c(NC(=O)CN3CC[C@H](Oc4ccnc(NC5CC5)n4)C3)c(N(C)C)ccc12 [Example 3, (S)-2-(3-((2-(cyclopropylamino)pyrimidin-4-yl)oxy)pyrrolidin-1-yl)-N-(3-(2-((1,5-dimethyl-1H-pyrazol-3-yl)amino)-5-methylpyrimidin-4-yl)-6-(dimethylamino)-1H-indol-7-yl)acetamide]",< 10
7,"COc1ccc2c(-c3nc(Nc4cc(C)n(C)n4)ncc3C)c[nH]c2c1NC(=O)CN1CC[C@H](Oc2ccnc(NC3CC3)n2)C1 [Example 4, (S)-2-(3-((2-(cyclopropylamino)pyrimidin-4-yl)oxy)pyrrolidin-1-yl)-N-(3-(2-((1,5-dimethyl-1H-pyrazol-3-yl)amino)-5-methylpyrimidin-4-yl)-6-methoxy-1H-indol-7-yl)acetamide]",< 10
8,"Cc1cnc(Nc2cc(C)n(C)n2)nc1C1=CCc2c1ccc(N(C)C)c2NC(=O)CN1CC[C@H](Oc2ccnc(NCC(F)(F)F)n2)C1 [Example 5, (S)-N-(3-(2-((1,5-dimethyl-1H-pyrazol-3-yl)amino)-5-methylpyrimidin-4-yl)-6-(dimethylamino)-1H-inden-7-yl)-2-(3-((2-((2,2,2-trifluoroethyl)amino)pyrimidin-4-yl)oxy)pyrrolidin-1-yl)acetamide]",< 10
9,"COc1ccc2c(-c3nc(Nc4cc(C)n(C)n4)ncc3C)c[nH]c2c1NC(=O)CN1CC[C@H](Oc2ccnc(NCC(F)(F)F)n2)C1 [Example 6, (S)-N-(3-(2-((1,5-dimethyl-1H-pyrazol-3-yl)amino)-5-methylpyrimidin-4-yl)-6-methoxy-1H-indol-7-yl)-2-(3-((2-((2,2,2-trifluoroethyl)amino)pyrimidin-4-yl)oxy)pyrrolidin-1-yl)acetamide]",10 to 100
10,"Cc1cc(Nc2nccc(-c3c[nH]c4c(NC(=O)CN5CC[C@H](Oc6cc(NC7CC7)ncn6)C5)cccc34)n2)nn1C [Example 7, (S)-2-(3-((6-(cyclopropylamino)pyrimidin-4-yl)oxy)pyrrolidin-1-yl)-N-(3-(2-((1,5-dimethyl-1H-pyrazol-3-yl)amino)pyrimidin-4-yl)-1H-indol-7-yl)acetamide]",< 10
11,"Cc1cc(Nc2ncc(F)c(-c3c[nH]c4c(NC(=O)CN5CC[C@H](Oc6ccncc6)C5)cccc34)n2)nn1C [Example 8, (S)-N-(3-(2-((1,5-dimethyl-1H-pyrazol-3-yl)amino)-5-fluoropyrimidin-4-yl)-1H-indol-7-yl)-2-(3-(pyridin-4-yloxy)pyrrolidin-1-yl)acetamide]",< 10
12,"Cc1cc(Nc2ncc(Cl)c(-c3c[nH]c4c(NC(=O)CN5CC[C@H](Oc6ccncc6)C5)cccc34)n2)nn1C [Example 9, (S)-N-(3-(5-chloro-2-((1,5-dimethyl-1H-pyrazol-3-yl)amino)pyrimidin-4-yl)-1H-indol-7-yl)-2-(3-(pyridin-4-yloxy)pyrrolidin-1-yl)acetamide]",< 10
13,"Cc1cc(Nc2ncc(C3CC3)c(-c3c[nH]c4c(NC(=O)CN5CC[C@H](Oc6ccnc(NC7CC7)n6)C5)cccc34)n2)nn1C [Example 12, (S)-N-(3-(5-cyclopropyl-2-((1,5-dimethyl-1H-pyrazol-3-yl)amino)pyrimidin-4-yl)-1H-indol-7-yl)-2-(3-((2-(cyclopropylamino)pyrimidin-4-yl)oxy)pyrrolidin-1-yl)acetamide]",10 to 100
14,"COc1cnc(Nc2cc(C)n(C)n2)nc1-c1c[nH]c2c(NC(=O)CN3CC[C@H](Oc4ccnc(NC5CC5)n4)C3)cccc12 [Example 13, (S)-2-(3-((2-(cyclopropylamino)pyrimidin-4-yl)oxy)pyrrolidin-1-yl)-N-(3-(2-((1,5-dimethyl-1H-pyrazol-3-yl)amino)-5-methoxypyrimidin-4-yl)-1H-indol-7-yl)acetamide]",< 10
15,"COc1cnc(Nc2cc(C)n(C)n2)nc1-c1c[nH]c2c(NC(=O)CN3CC[C@H](Oc4cnnc(NC5CC5)n4)C3)cccc12 [Example 14, (S)-2-(3-((3-(cyclopropylamino)-1,2,4-triazin-5-yl)oxy)pyrrolidin-1-yl)-N-(3-(2-((1,5-dimethyl-1H-pyrazol-3-yl)amino)-5-methoxypyrimidin-4-yl)-1H-indol-7-yl)acetamide]",< 10
16,"Cc1cnc(Nc2cc3n(n2)CCC3)nc1-c1c[nH]c2c(NC(=O)CN3CC[C@H](Oc4ccncn4)C3)cccc12 [Example 15, (S)-N-(3-(2-((5,6-dihydro-4H-pyrrolo[1,2-b]pyrazol-2-yl)amino)-5-methylpyrimidin-4-yl)-1H-indol-7-yl)-2-(3-(pyrimidin-4-yloxy)pyrrolidin-1-yl)acetamide]",< 10
17,"Cc1cnc(Nc2cc3n(n2)CCC3)nc1-c1c[nH]c2c(NC(=O)CN3CC[C@H](Oc4ccnc(NC5CC5)n4)C3)cccc12 [Example 16, (S)-2-(3-((2-(cyclopropylamino)pyrimidin-4-yl)oxy)pyrrolidin-1-yl)-N-(3-(2-((5,6-dihydro-4H-pyrrolo[1,2-b]pyrazol-2-yl)amino)-5-methylpyrimidin-4-yl)-1H-indol-7-yl)acetamide]",< 10
18,"Cc1cnc(Nc2cc(C)n(CCN3CCOCC3)n2)nc1-c1c[nH]c2c(NC(=O)CN3CC[C@H](Oc4ccnc(NC5CC5)n4)C3)cccc12 [Example 17, (S)-2-(3-((2-(cyclopropylamino)pyrimidin-4-yl)oxy)pyrrolidin-1-yl)-N-(3-(5-methyl-2-((5-methyl-1-(2-morpholinoethyl)-1H-pyrazol-3-yl)amino)pyrimidin-4-yl)-1H-indol-7-yl)acetamide]",< 10
19,"Cc1cnc(Nc2cc(C)n(C)n2)nc1-c1c[nH]c2c(NC(=O)C(=O)N3CC[C@H](Oc4ccncc4)C3)cccc12 [Example 18, (S)-N-(3-(2-((1,5-dimethyl-1H-pyrazol-3-yl)amino)-5-methylpyrimidin-4-yl)-1H-indol-7-yl)-2-ox0-2-(3-(pyridin-4-yloxy)pyrrolidin-1-yl)acetamide]",10 to 100
20,Cc1cnc(Nc2cc(C)n(C)n2)nc1-c1c[nH]c2c(NC(=O)C(=O)N3CCC(Oc4ccccn4)C3)cccc12 (stereo not drawn) [Example 19],10 to 100
21,"Cc1cnc(Nc2cc(C)n(C)n2)nc1-c1c[nH]c2c(NC(=O)C(=O)N3CC[C@H](Oc4ccnc(NC5CC5)n4)C3)cccc12 [Example 20, (S)-2-(3-((2-(cyclopropylamino)pyrimidin-4-yl)oxy)pyrrolidin-1-yl)-N-(3-(2-((1,5-dimethyl-1H-pyrazol-3-yl)amino)-5-methylpyrimidin-4-yl)-1H-indol-7-yl)-2-oxoacetamide]",< 10
